Results on nine compounds are retold here after patent US12662479B2 (Foghorn Therapeutics Inc., priority 2020, dated 2026).

Counter-ions that a name gives are not always drawn.

The target of one assay is T1, HiBit-BRM fusion protein (Homo sapiens, UniProt P51531).
T1 construct: expressed in transfected cells
Nature of the assay: HiBiT-BRM cell-based degradation assay (Nano-Glo HiBiT Lytic Detection, 24 h). To be noted: HeLa cells expressing HiBiT-BRM; for DC50: read-out: BRM HiBit Degradation IC50; for BRM HiBit Degradation Maximum measured: top dose 30 μM. Summed up: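 HeLa cells stably expressing HiBiT-BRM were dosed with compounds (10-point 3-fold dilutions, 30 μM final top dose, duplicate) for 24 h. HiBiT signal was read by lytic LgBiT complementation luminescence. Percent degradation was normalised to DMSO (high control) and 2 μM of a reference BRM/BRG1 degrader (low control).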

Assay [1] addresses T2, HiBit-BRG1 fusion protein (Homo sapiens, UniProt P51532).
T2 construct: expressed in transfected cells
Put plainly: HiBiT-BRG1 cell-based degradation assay (Nano-Glo HiBiT Lytic Detection, 24 h). To be noted: HeLa cells expressing HiBit-BRG1 and LgBit; for DC50: read-out: BRG1 HiBit Degradation IC50; for Dmax: HeLa, top dose 30 μM, read-out: BRG1 HiBit Degradation Maximum measured. Summed up:
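Stable HeLa line expressing HiBiT-BRG1 and LgBiT, seeded at 5000 cells/well; luminescence read after lytic Nano-Glo HiBiT reagent and 10 min shaking at RT. % degradation normalised between DMSO (high control) and 2 μM reference BRM/BRG1 degrader (low control).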

T1 sequence (P51531 whole entry, the tested form may be a part): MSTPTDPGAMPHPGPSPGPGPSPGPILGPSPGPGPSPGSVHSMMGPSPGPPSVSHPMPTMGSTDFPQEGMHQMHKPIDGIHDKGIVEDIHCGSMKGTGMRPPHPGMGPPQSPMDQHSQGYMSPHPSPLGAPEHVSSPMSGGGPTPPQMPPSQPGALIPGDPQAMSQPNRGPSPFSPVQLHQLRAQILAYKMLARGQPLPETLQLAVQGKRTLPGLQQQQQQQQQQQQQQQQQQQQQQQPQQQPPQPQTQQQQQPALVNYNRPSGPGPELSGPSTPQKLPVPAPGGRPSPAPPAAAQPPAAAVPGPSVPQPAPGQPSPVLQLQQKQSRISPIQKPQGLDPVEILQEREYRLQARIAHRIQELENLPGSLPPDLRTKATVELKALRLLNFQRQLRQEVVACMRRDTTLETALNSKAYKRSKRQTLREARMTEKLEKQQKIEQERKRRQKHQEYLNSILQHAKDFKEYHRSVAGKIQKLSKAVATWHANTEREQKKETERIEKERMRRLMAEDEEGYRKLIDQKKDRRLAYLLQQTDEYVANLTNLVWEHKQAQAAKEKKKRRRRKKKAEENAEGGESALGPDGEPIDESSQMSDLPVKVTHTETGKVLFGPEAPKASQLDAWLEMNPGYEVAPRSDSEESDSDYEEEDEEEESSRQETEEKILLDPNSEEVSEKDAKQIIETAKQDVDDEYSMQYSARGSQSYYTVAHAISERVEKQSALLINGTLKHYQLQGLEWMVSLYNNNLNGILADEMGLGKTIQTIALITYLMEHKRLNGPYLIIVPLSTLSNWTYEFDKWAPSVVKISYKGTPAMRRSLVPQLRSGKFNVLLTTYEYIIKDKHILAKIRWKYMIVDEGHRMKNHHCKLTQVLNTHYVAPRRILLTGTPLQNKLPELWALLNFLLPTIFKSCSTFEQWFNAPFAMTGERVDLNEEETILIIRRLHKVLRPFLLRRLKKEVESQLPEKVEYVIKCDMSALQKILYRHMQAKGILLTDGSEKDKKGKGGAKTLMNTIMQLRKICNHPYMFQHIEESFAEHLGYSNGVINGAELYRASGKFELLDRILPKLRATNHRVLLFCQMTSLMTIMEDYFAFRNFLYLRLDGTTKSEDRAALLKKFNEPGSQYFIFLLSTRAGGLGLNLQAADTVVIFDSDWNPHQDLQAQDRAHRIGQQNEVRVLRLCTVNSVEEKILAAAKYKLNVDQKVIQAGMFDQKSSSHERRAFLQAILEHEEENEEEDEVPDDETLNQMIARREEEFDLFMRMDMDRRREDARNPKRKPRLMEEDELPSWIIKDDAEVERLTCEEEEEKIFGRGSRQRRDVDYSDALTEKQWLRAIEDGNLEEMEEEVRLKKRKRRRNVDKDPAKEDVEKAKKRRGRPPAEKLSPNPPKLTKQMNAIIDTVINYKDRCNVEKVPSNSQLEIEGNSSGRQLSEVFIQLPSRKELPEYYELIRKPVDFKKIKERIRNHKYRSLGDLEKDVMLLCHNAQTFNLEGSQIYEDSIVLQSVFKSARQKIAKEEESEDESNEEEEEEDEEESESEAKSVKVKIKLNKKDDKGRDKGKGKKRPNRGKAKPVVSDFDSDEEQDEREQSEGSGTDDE
T2 sequence (P51532 whole entry, the tested form may be a part): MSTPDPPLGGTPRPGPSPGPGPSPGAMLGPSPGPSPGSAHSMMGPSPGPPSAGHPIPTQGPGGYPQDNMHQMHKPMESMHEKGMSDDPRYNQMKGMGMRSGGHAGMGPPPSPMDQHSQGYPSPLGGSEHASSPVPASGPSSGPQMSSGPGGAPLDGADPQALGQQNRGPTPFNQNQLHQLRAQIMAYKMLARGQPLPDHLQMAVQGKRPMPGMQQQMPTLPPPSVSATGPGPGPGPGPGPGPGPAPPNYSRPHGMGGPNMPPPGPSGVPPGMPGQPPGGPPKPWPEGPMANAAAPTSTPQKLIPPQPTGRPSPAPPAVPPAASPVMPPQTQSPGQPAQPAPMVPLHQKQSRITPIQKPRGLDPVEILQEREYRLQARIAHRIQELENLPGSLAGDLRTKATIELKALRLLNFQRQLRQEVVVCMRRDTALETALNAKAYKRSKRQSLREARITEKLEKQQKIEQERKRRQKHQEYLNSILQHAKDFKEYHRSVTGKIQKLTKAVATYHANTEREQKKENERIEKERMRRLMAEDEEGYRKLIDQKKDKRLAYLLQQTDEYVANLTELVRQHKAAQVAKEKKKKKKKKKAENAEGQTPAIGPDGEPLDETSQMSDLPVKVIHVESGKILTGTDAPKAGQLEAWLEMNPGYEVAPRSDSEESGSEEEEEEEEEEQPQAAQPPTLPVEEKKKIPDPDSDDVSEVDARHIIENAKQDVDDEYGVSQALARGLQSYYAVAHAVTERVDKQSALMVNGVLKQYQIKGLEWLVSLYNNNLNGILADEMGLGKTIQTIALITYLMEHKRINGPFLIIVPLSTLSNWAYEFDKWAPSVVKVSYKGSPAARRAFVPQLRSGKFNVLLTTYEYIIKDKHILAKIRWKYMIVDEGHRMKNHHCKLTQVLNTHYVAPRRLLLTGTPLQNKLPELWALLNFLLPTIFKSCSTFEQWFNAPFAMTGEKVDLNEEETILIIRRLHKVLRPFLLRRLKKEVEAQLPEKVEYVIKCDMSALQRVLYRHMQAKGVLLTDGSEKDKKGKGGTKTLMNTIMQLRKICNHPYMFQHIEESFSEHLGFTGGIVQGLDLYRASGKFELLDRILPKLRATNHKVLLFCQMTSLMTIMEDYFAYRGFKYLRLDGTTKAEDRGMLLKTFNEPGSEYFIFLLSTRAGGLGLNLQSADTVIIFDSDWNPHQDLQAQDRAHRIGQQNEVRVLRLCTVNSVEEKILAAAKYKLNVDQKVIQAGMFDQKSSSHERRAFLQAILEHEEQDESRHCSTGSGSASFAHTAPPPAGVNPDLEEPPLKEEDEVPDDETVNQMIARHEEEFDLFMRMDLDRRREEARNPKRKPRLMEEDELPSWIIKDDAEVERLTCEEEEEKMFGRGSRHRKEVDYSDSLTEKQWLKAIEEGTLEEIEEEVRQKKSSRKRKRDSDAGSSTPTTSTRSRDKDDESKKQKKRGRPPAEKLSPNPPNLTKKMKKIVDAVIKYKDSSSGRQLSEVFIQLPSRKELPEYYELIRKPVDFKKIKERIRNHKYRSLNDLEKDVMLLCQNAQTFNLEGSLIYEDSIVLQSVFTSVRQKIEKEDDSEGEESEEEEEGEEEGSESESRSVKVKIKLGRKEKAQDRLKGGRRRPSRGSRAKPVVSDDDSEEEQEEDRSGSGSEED

As to `Cc1ncsc1-c1ccc(CNC(=O)[C@@H]2C[C@@H](O)CN2C(=O)[C@@H](NC(=O)CCC(=O)N2CCN(c3cc(-c4cccc(-c5csc(NC(=O)CNC(=O)c6ccn(S(C)(=O)=O)c6)n5)c4)ccn3)CC2)C(C)(C)C)cc1` [Compound 74, N-[2-[[4-[3-[2-[4-[4-[[(1S)-1-[(2S,4R)-4-hydroxy-2-[[4-(4-methylthiazol-5-yl)phenyl]methylcarbamoyl]pyrrolidine-1-carbonyl]-2,2-dimethyl-propyl]amino]-4-oxo-butanoyl]piperazin-1-yl]-4-pyridyl]phenyl]thiazol-2-yl]amino]-2-oxo-ethyl]-1-methylsulfonyl-pyrrole-3-carboxamide], on HiBit-BRM fusion protein, the DC50 was greater than 10 µM and the “BRM HiBit Degradation Maximum measured” value was “C (‘C’ = Maximum degradation <50%)”. Besides, in assay [1], the DC50 is greater than 10 µM and the Dmax was less than 50%.
`CS(=O)(=O)n1ccc(C(=O)NCC(=O)Nc2nc(-c3cccc(-c4ccnc(C5(C(=O)NCC6CCN(CCOc7ccc8c(c7)C(=O)N(C7CCC(=O)NC7=O)C8=O)CC6)CC5)c4)c3)cs2)c1` (stereo not drawn) [Compound 149, N-[[1-(2-[[2-(2,6-dioxopiperidin-3-yl)-1,3-dioxoisoindol-5-yl]oxy]ethyl)piperidin-4-yl]methyl]-1-[4-[3-(2-[2-[(1-methanesulfonylpyrrol-3-yl)formamido]acetamido]-1,3-thiazol-4-yl)phenyl]pyridin-2-yl]cyclopropane-1-carboxamide]: on HiBit-BRM fusion protein, the DC50 is 0.1 to 1 µM and the “BRM HiBit Degradation Maximum measured” value is given as “A (‘A’ = Maximum degradation >75%)”. Further, in assay [1], the DC50 lay within 0.1 to 1 µM and the Dmax was greater than 75%.
`Cc1ncsc1-c1ccc(CNC(=O)[C@@H]2C[C@@H](O)CN2C(=O)[C@@H](NC(=O)CCC(=O)NCc2cccc(-c3cccc(-c4csc(NC(=O)CNC(=O)c5ccn(S(C)(=O)=O)c5)n4)c3)c2)C(C)(C)C)cc1` [Compound 63, N1-((S)-1-((2S,4R)-4-hydroxy-2-((4-(4-methylthiazol-5-yl)benzyl)carbamoyl)pyrrolidin-1-yl)-3,3-dimethyl-1-oxobutan-2-yl)-N4-((3′-(2-(2-(1-(methylsulfonyl)-1H-pyrrole-3-carboxamido)acetamido)thiazol-4-yl)-[1,1′-biphenyl]-3-yl)methyl)succinamide]: on HiBit-BRM fusion protein, the DC50 was greater than 10 µM and the “BRM HiBit Degradation Maximum measured” value is recorded as “C (‘C’ = Maximum degradation <50%)”. In addition, in assay [1], the DC50 was greater than 10 µM and the Dmax was less than 50%.
As to `CS(=O)(=O)n1ccc(C(=O)N[C@@H](COCCCC(=O)NCCCCCCCCNc2cccc3c2C(=O)N(C2CCC(=O)NC2=O)C3=O)C(=O)Nc2nc(-c3ccccc3)cs2)c1` (stereo partly drawn) [Compound 186, N-(8-[[2-(2,6-dioxopiperidin-3-yl)-1,3-dioxoisoindol-4-yl]amino]octyl)-4-[(2S)-2-[(1-methanesulfonylpyrrol-3-yl)formamido]-2-[(4-phenyl-1,3-thiazol-2-yl)carbamoyl]ethoxy]butanamide], at HiBit-BRM fusion protein, the DC50 is greater than 10 µM and the “BRM HiBit Degradation Maximum measured” value is listed as “C (‘C’ = Maximum degradation <50%)”. Also, in assay [1], the DC50 was greater than 10 µM and the Dmax was less than 50%.
Turning to `CS(=O)(=O)n1ccc(C(=O)NCC(=O)Nc2nc(-c3cccc(-c4ccnc(C5(C(=O)NCCOCCOCCNc6ccc7c(c6)C(=O)N(C6CCC(=O)NC6=O)C7=O)CC5)c4)c3)cs2)c1` (stereo not drawn) [Compound 101, N-[2-[[4-[3-[2-[1-[2-[2-[2-[[2-(2,6-dioxo-3-piperidyl)-1,3-dioxo-isoindolin-5-yl]amino]ethoxy]ethoxy]ethylcarbamoyl]-cyclopropyl]-4-pyridyl]phenyl]thiazol-2-yl]amino]-2-oxo-ethyl]-1-methylsulfonylpyrrole-3-carboxamide], at HiBit-BRM fusion protein, the DC50 was greater than 10 µM and the “BRM HiBit Degradation Maximum measured” value is on record as “C (‘C’ = Maximum degradation <50%)”. Also, in assay [1], the DC50 is greater than 10 µM and the Dmax is less than 50%.
For the compound `CS(=O)(=O)n1ccc(C(=O)NCC(=O)Nc2nc(-c3cccc(-c4ccnc(OCCNC(=O)CCOCCOCCNc5ccc6c(c5)C(=O)N(C5CCC(=O)NC5=O)C6=O)c4)c3)cs2)c1` (stereo not drawn) [Compound 83, N-[2-[[4-[3-[2-[2-[3-[2-[2-[[2-(2,6-dioxo-3-piperidyl)-1,3-dioxoisoindolin-5-yl]amino]ethoxy]ethoxy]propanoylamino]ethoxy]-4-pyridyl]phenyl]thiazol-2-yl]amino]-2-oxo-ethyl]-1-methylsulfonyl-pyrrole-3-carboxamide], on HiBit-BRM fusion protein, the DC50 is greater than 10 µM and the “BRM HiBit Degradation Maximum measured” value is “C (‘C’ = Maximum degradation <50%)”. Besides, in assay [1], the DC50 is greater than 10 µM and the Dmax is less than 50%.
For the compound `CS(=O)(=O)n1ccc(C(=O)NCC(=O)Nc2nc(-c3cccc(-c4ccnc(N5CCN(c6ccc7c(c6)C(=O)N(C6CCC(=O)NC6=O)C7=O)CC5)c4)c3)cs2)c1` (stereo not drawn) [Compound 165, N-[4-[3-(2-[4-[2-(2,6-dioxopiperidin-3-yl)-1,3-dioxoisoindol-5-yl]piperazin-1-yl]pyridin-4-yl)phenyl]-1,3-thiazol-2-yl]-2-[(1-methanesulfonylpyrrol-3-yl)formamido]acetamide trifluoroacetate], at HiBit-BRM fusion protein, the DC50 was greater than 10 µM and the “BRM HiBit Degradation Maximum measured” value was “C (‘C’ = Maximum degradation <50%)”. Further, in assay [1], the DC50 was greater than 10 µM and the Dmax was less than 50%.
Take `Cc1ncsc1-c1ccc(CNC(=O)[C@@H]2C[C@@H](O)CN2C(=O)[C@@H](NC(=O)COCCOCCOCCNC(=O)CCCOC[C@H](NC(=O)c2ccn(S(C)(=O)=O)c2)C(=O)Nc2nc(-c3ccccc3)cs2)C(C)(C)C)cc1` [Compound 225, (2S,4R)-4-hydroxy-1-[(2S)-2-(2-[2-[2-(2-[4-[(2S)-2-[(1-methanesulfonylpyrrol-3-yl)formamido]-2-[(4-phenyl-1,3-thiazol-2-yl)carbamoyl]ethoxy]butanamido]ethoxy)ethoxy]ethoxy]acetamido)-3,3-dimethylbutanoyl]-N-[[4-(4-methyl-1,3-thiazol-5-yl)phenyl]methyl]pyrrolidine-2-carboxamide]: on HiBit-BRM fusion protein, the DC50 is greater than 10 µM and the “BRM HiBit Degradation Maximum measured” value is given as “C (‘C’ = Maximum degradation <50%)”. Besides, in assay [1], the DC50 was greater than 10 µM and the Dmax is less than 50%.
Turning to `Cc1ncsc1-c1ccc(CNC(=O)[C@@H]2C[C@@H](O)CN2C(=O)[C@@H](NC(=O)COCC(=O)NCc2cccc(-c3cccc(-c4csc(NC(=O)CNC(=O)c5ccn(S(C)(=O)=O)c5)n4)c3)c2)C(C)(C)C)cc1` [Compound 18, N-[2-[[4-[3-[3-[[[2-[2-[[(1S)-1-[(2S,4R)-4-hydroxy-2-[[4-(4-methylthiazol-5-yl)phenyl]methylcarbamoyl]pyrrolidine-1-carbonyl]-2,2-dimethyl-propyl]amino]-2-oxo-ethoxy]acetyl]amino]methyl]-phenyl]phenyl]thiazol-2-yl]amino]-2-oxo-ethyl]-1-methylsulfonyl-pyrrole-3-carboxamide], on HiBit-BRM fusion protein, the DC50 is greater than 10 µM and the “BRM HiBit Degradation Maximum measured” value is given as “C (‘C’ = Maximum degradation <50%)”. Besides, in assay [1], the DC50 is greater than 10 µM and the Dmax is less than 50%.
